Experimental findings from patent US9233095B2, “Small molecule RNase inhibitors and methods of use” (University of Rochester, priority 2011, dated 2016) are described below.

In test [1] the test system is S. aureus (MSSA). As to the kind of experiment: CLSI broth microdilution MIC. The test is classed as cell-based, Staphylococcus aureus. As to conditions: Staphylococcus aureus, MSSA; strain UAMS-1. The source says: (§1) In some examples, compounds can be further assayed using the Mueller Hinton (MH) broth antibacterial assay as specified by the Clinical and Laboratory Standards Institute MIC broth microdilution protocol (see Methods for Dilution Antimicrobial Susceptibility Tests for Bacteria That Grow Aerobically; Approved Standard, In The Clinical and Laboratory Standards Institute (CLSI, formerly NCCLS), 7th ed., January 2006, 26 (2), M7-A7; see also Performance Standards for Antimicrobial Susceptibility Testing; Eighteenth Informational Supplement, In The Clinical and Laboratory Standards Institute (CLSI, formerly NCCLS), January 2008, 28 (1), M100-S18).
(§2) With the exception of RN4220-derivatives, in vitro activities of RNPA1000 against bacteria were determined by the broth microdilution method according to the Clinical and Laboratory Standards Institute (CLSI) guidelines using cation adjusted Mueller-Hinton broth or MH broth supplemented with 5% lysed horse blood (for testing Streptotococcus spp.). Microtiter plates containing serial dilutions of RNPA1000 (0, 4, 8, 16, 32, 64, and 128 μg/ml) were inoculated with 10^5 colony forming units (CFU)/ml and incubated for 18 hr at 37° C. […] The MIC value for each S. aureus strain was determined to be the median score of replicate measurements (n=5). Wells containing concentrations of RNPA1000≧MIC were plated for minimal bactericidal measurement. Where possible, experiments with VRSA strains were performed in a laminar flow hood to minimize potential for equipment contamination. For RN4220 cells containing plasmid vector (pCN51), RnpA overproducing plasmid (pRNPA-S) or RnpA underproducing plasmid (pRNPA-A.S.) in vitro antimicrobial activity of RNPA1000 was performed by the microdilution method as described above, except that cells were grown in Tryptic Soy Broth medium supplemented with 2.5 μM CdCl2 and 0, 1, 2, 4, 8, 16, 32, 64, or 128 μg/ml RNPA1000. Time-kill assays were also performed to monitor the antimicrobial properties of RNPA1000 for S. aureus strain UAMS-1 in the absence and presence of 0.25, 0.5, 2, and 4 times the strain's MIC for oxacillin (1 μg/ml), rifampicin (0.5 μg/ml), vancomycin (2 μg/ml), or daptomycin (1 μg/ml). The indicated amount of RNPA1000 and/or commercial antibiotic were added to mid-exponential phase (2×10^8 cfu/ml) S. aureus strain UAMS-1 cells and incubated at 37° C. Aliquots were removed at 0, 2, 4, 8, and 24 hr post-antimicrobial challenge, serial diluted, and plated to enumerate resulting cfu/ml. All time-kill assays were repeated at least 3 times.
In general terms: In broth dilution the organism is exposed to a series of concentrations in liquid medium.

In test [2] the test system is E. coli. The test can be described thus: CLSI broth microdilution MIC. Format: cell-based, Escherichia coli.
From the text: as §1, §2

In test [3] the target is T1, S. aureus RnpA (Staphylococcus aureus, UniProt P0A0H5).
T1 construct: hexahistidine-tag (N); made in house; host or cells: E. coli BL21 (DE3)
The test can be described thus: gel-based RnpA-mediated spa mRNA degradation, inhibitory titration. Format: biochemical. The following applies: 1 pmol spa mRNA, 20 pmol RnpA, one hour at 37° C.; read-out: IC50 of RnpA-mediated RNA degradation. As to the method: Specifically, members of the ActiProbe-25K and Natural Product libraries (29,940 compounds total; TimTec Inc.; Newark, Del.) were screened for small molecule inhibitors of S. aureus RnpA mediated total bacterial RNA degradation. All reactions (50 μl) were performed in 96-well format and contained 20 pmol RnpA, 200 ng S. aureus total RNA, and about 5 μM of each compound in 1× reaction buffer (2 mM NaCl, 2 mM MgCl2, 50 mM Tris-HCl, pH 6.0). Mixtures were incubated at 37° C. for 20 min at which time Quant-iT RiboGreen® (100 μl; Invitrogen) was added to quantify the amount of RNA substrate remaining. Percent enzyme inhibition was calculated as remaining substrate/starting substrate*100. For inhibitory titration assays, 1 pmol of spa mRNA was incubated with 20 pmol RnpA alone (positive control) or in the presence of increasing amounts (0, 25, 50, 100, 125, 150, 200, 250, and 500 μM) RNP1000 for one hour at 37° C. Following this, 20 μl of each reaction mixture were subjected to electrophoresis in a 1.2% formaldehyde-containing agarose gel and visualized by ethidium bromide staining.

Test [4] has as its target E. coli RNase III (Escherichia coli, UniProt P0A7Y0). As to the kind of experiment: ribonuclease specificity test. The test is classed as biochemical. As to conditions: data not shown. An excerpt: (§3) In total, fourteen molecules inhibited the enzyme's RNA turnover activity by ≧50%. A gel-based secondary assay confirmed that five of these molecules were bona-fide inhibitors of RnpA-mediated RNA degradation (FIG. 3B).

Test [5] deals with T2, RNase A (Bos taurus, UniProt P61823).
T2 construct: purchased
T2 sequence (P61823 27-150): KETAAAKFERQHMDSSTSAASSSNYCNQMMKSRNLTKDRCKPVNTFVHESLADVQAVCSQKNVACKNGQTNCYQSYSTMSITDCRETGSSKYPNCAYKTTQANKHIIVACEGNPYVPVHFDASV
The test can be described thus: ribonuclease specificity test. Format: biochemical. The following applies: any concentration tested (0-750 μM).
From the text: as §3

Test [6] has as its target T3, RNase I (Escherichia coli, UniProt P21338).
T3 construct: purchased
As to the kind of experiment: ribonuclease specificity test. The following applies: any concentration tested (0-750 μM). Format: biochemical.
From the text: as §3

Test [7] deals with T4, S. aureus RNase J1 (Staphylococcus aureus, UniProt Q2FZG9).
T4 construct: hexahistidine-tag (N); made in house; host or cells: E. coli BL21 (DE3)
The test can be described thus: ribonuclease specificity test. As to conditions: any concentration tested (0-750 μM). Format: biochemical.
From the text: as §3

Test [8] addresses T5, E. coli RNase HI (Escherichia coli, UniProt P0A7Y4).
T5 construct: purchased
As to the kind of experiment: ribonuclease specificity test. The test is classed as biochemical. The following applies: any concentration tested (0-750 μM).
From the text: as §3

The test system of test [9] is S. aureus strain UAMS-1. The test can be described thus: time-kill assay. The test is classed as cell-based. As to the method: as §2
Test [10] has as its system S. aureus strain Smith. The test can be described thus: acute lethal model of infection. The test is classed as in vivo, CD-1 mice. The following applies: RNPA1000 128 mg/kg s.c., over the course of study.
The mark [11] stands for this setting: combination time-kill, data not shown.

In brackets after ≈: the same amount, converted by molar mass. Where two headings read alike, the source gives them in different places.

Chain of E. coli RNase III (P0A7Y0 whole entry): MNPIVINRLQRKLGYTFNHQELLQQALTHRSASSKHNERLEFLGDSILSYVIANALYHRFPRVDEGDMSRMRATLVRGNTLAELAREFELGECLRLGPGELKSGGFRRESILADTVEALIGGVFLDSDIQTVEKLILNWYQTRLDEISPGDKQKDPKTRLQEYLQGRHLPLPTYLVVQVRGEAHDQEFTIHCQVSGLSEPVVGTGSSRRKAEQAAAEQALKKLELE
T3 sequence (P21338 24-268): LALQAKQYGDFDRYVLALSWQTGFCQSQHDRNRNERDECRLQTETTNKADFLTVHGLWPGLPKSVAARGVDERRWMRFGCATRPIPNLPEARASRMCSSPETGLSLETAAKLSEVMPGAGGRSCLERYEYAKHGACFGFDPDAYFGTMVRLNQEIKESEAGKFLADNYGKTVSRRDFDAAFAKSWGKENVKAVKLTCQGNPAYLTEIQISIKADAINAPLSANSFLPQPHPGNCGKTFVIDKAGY
T5 sequence (P0A7Y4 whole entry): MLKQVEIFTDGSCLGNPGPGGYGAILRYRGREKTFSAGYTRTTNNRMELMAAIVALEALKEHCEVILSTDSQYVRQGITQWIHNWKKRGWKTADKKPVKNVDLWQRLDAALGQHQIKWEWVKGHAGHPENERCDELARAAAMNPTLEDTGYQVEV

Regarding `Cc1cc(/C=C(/C#N)C(=O)Nc2cccc(Br)c2)c(C)n1-c1ccc(C(=O)O)cc1` [RNPA1000], the MIC (as a rule, the lowest concentration that inhibits growth of the organism) is 26 µg/mL (≈ 56 µM) in test [1]; above 64 µg/mL in test [2] (E. coli Isolate 2); above 64 µg/mL in [2] (E. coli Isolate 3); above 64 µg/mL in test [2] (E. coli Isolate 4); above 64 µg/mL in [2] (E. coli Isolate 5); above 64 µg/mL in test [2] (Escherichia coli, E. coli Isolate 1, read-out: MIC). The effect on growth entry in test [2] is “did not affect”. Besides, the IC50 (in general, the concentration that gives 50% inhibition) in [3] lay within 100 to 125 µM; in test [4], 500 to 750 µM. In addition, the “effect on RNase A activity” value in test [5] was “did not affect the activity”. Moreover, the “effect on RNase I activity” value in test [6] is listed as “did not affect the activity”. In test [7], the “effect on S. aureus RNase J1 activity” value was “did not affect the activity”. Besides, in test [8], the “effect on E. coli RNase HI activity” value is listed as “did not affect the activity”. For the same molecule, the “mode of antimicrobial action in time kill assays” value in test [9] (0.25-4 times the MIC, 0-24 hr) was “bacteriostatic”. Also, the “effect on the potency of oxacillin” value in test [9] (combination time-kill, 0.5 times the MIC of each) is “mildly increase the potency”. In addition, in test [9] (setting [11]), the “effect on the antimicrobial activity of daptomycin” value is on record as “does not affect the antimicrobial activities”. In [9] (setting [11]), the “effect on the antimicrobial activity of rifampicin” value was “does not affect the antimicrobial activities”. In [9] (setting [11]), the “effect on the antimicrobial activity of vancomycin” value is reported as “does not affect the antimicrobial activities”. For the same molecule, the survival in test [10] is 30%.
